Experiments:
rabbit skeletal myosin = test: Myosin inhibition assay (rbskMF pCa 6 IC50); type: biochemical; details: cardiac vs rabbit skeletal myofibrils
Text: Myosin inhibition assay (rbskMF pCa 6 IC50 (μM))
Inhibition of the enzymatic activity of rabbit skeletal myosin associated with the release of ADP (adenosine diphosphate) at the calcium concentrate that achieves a 50% activation of the rabbit skeletal myofibril system. The procedure was the same as that of bovin cardiac myosin inhibition assay (bcMF pCa 6 IC50 (μM)) by replacing bovine cardiac myofibril with rabbit skeletal myofibril.

[1] = tested on: adult rat ventricular myocytes; test: Cardiomyocyte contractility assay; type: cell-based; details: 0.3 μM compound; for inhibition at 0.3 µM: Rattus norvegicus, Ventricular myocyte, fractional shortening, myocytes paced at 1 Hz, read-out: % inhibition of FS at 0.3 μM
Protocol: Cardiomyocyte Contractility Assay
Contractility of adult rat ventricular myocytes is determined by edge detection with an IonOptix contractility system. Aliquots of myocytes in Tyrode buffer (137 mM NaCl, 3.7 mM KCL, 0.5 mM MgCl2, 1.5 mM CaCl2, 4 mM HEPES, 11 mM glucose) are placed in a perfusion chamber (Series 20 RC-27NE; Warner Instruments), allowed to adhere to the coverslip, and then perfused with 37° C. Tyrode buffer. Myocytes are filed stimulated at 1 Hz and 10V. Only myocytes with clear striations, quiescent prior to pacing, with a cell length of 120-180 microns, a basal fractional shortening equal to 3-8% of the cell length, and a contraction velocity greater than 100 microns per second are used for contractility experiments. To determine the response to compounds (at 0.3 μM concentration), myocytes are first perfused for 60 seconds with Tyrodes buffer followed by 5 min of compound and a 140 second washout with Tyrodes buffer. Data is continuously recorded using IonOptix software. Contractility data is analyzed using Ionwizard software (IonOptix). For each cell, 10-20 contractility transients were averaged and compared under basal (no compound) and compound-treated conditions. Compound activity is measured by effects on fractional shortening (FS), where fractional shortening is the ratio of the peak length of the cell at contraction divided by the basal cell length normalized to 100% for an untreated cell. The % inhibition measurement is calculated by subtracting the FS value from 100%.

[2] = Reactive metabolite identification (glutathione adducts); type: in vitro ADME, human; details: for % GSH-adduct (+NADPH, +GSH) relative to parent (−NADPH, −GSH): human liver microsomes, 30 μM, 60 min
Protocol: Reactive Metabolite Identification
In vitro determination of reactive metabolite formation for small molecules by detection of glutathione adducts formed in vitro in incubations with human liver microsomes fortified with NADPH and glutathione.
Methods: The metabolism of small molecules (30 μM) for glutathione adduct formation was assessed in incubations (200 μL volume, […], 60 min incubation time) with liver microsomes from human (1 mg/mL protein) conducted in potassium phosphate buffer (0.1 M, pH 7.4) for 1 h at 37° C. in a 96-well plate (2 mL well volume) and were performed in the absence of NADPH (used as a negative control) and in the presence of NADPH (1 mM) and glutathione (GSH, 10 mM). Incubations with liver microsomes were performed in a shaking water bath incubator with slow horizontal shaking (30 rpm). To obtain 30 μM incubation concentration of a compound, a 3 mM substrate stock solution in DMSO was used. Final incubation mixtures contained 148 μL of potassium phosphate buffer, 10 μL of liver microsome solution (20 mg protein/mL), 2 μL of the 3 mM substrate solution and where incubations were initiated by the addition of 40 μL of NADPH solution (5 mM dissolved in potassium phosphate buffer). Non-NADPH containing incubations were supplemented with 40 μL of potassium phosphate buffer. Post-incubation, reactions were terminated by adding an equal volume of acetonitrile containing 20 nM carbamazepine internal standard and 3% formic acid. Quenched samples then were centrifuged (4,600 rpm, 4° C., 10-min) after which the supernatants were transferred to a 96-well LC-MS sample analysis plate and diluted with one volume equivalent of HPLC-grade water, and then heat sealed with aluminum foil prior to analysis by liquid chromatography/mass spectrometry (LC-MS/MS).
Analyte identification: The LC-MS/MS detection (with in-line UV detection at 280 nm) of test compounds and potential GSH-adducts was focused on extracting selected ion chromatographic profiles using the protonated molecular ion MH^+ m/z for parent to 4 decimal places, and corresponding protonated molecular ions of predicted GSH-adduct metabolites (m/z MH^+ parent+305.0681 amu) using Xcalibur software (version 2.1.0, Thermo Fisher Scientific, Waltham, MA). Relative GSH-adduct abundance in vitro in liver microsome extracts was assessed using the LC/UV absorbance at 280 nm peak area ratio obtained by using Xcalibur software (version 2.1.0) between the detected GSH-adducts from NADPH- and GSH-fortified incubation extracts and the corresponding LC/UV peak area of the parent compound from minus NADPH containing incubation extracts. The extent of GSH-adduct formation was determined by LC-MS/MS analysis with in-line LC-UV detection at 280 nm by dividing the glutathione-adduct LC/UV peak area by the LC/UV peak area of the corresponding parent HCM-1 NG analog determined from analysis of control (-NAPDH, -GSH) incubations extracts.
Materials: Pooled male human (HLM, 50 donors) liver microsomes were obtained from Bioreclamation IVT (Baltimore, MD). Glutathione (GSH) and NADPH were purchased from Sigma Chemical Co. (St. Louis, MO). All solvents used for liquid chromatography-tandem mass spectrometry (LC-MS/MS) analyses were of chromatographic grade.
LC-MS Conditions: Extracts from incubations with liver microsomes and hepatocytes were characterized by LC-MS and LC-MS/MS on a Thermo Electron LTQ Orbitrap XL mass spectrometer coupled with a Dionex UltiMate 3000 UHPLC containing in-line diode array detection and an OAS-3300TXRS Autosampler (40 μL injection volume). Electrospray ionization (ESI) was employed in the positive ion mode with the needle potential held at 5.01 kV, a sheath flow rate of 35.02, aux flow rate of 9.99, a current of 2.6 uA, a capillary temperature of 325° C., and a capillary voltage of 15.99. Vacuum conditions used were an ion gauge pressure used was 2.33×10^−5 Torr and a convection gauge pressure of 0.90 Torr. […]

| Structure (SMILES) | Cardiac selectivity ratio vs rbskMF pCa 6 IC50 (rabbit skeletal myosin) | inhibition at 0.3 µM [1] [%] | % GSH-adduct (+NADPH, +GSH) relative to parent (−NADPH, −GSH) [2] | Glutathione Adduct Detection in Human Liver Microsome Incubations (single measurement) ([2]; single measurement) | Glutathione Adduct Detection in Human Liver Microsome Incubations, Average (triple measurements) ([2]; triple measurements) | observation in cardiomyocyte contractility assay [1] |
| --- | --- | --- | --- | --- | --- | --- |
| Cc1ccc(F)c([C@@H]2Nc3[nH]c(=O)n(C4CCOCC4)c(=O)c3C[C@@H]2F)c1 [Compound 3, (6S,7S)-6-fluoro-7-(2-fluoro-5-methylphenyl)-3-(tetrahydro-2H-pyran-4-yl)-5,6,7,8-tetrahydropyrido[2,3-d]pyrimidine-2, 4 (1H, 3H)-dione] | 4.51 | > 66 | Not Detected | Not Detected | Not Detected |  |
| O=c1[nH]c2c(c(=O)n1C1CCOCC1)CC(F)(F)[C@H](c1cccc(F)c1)N2 [Compound C-1, (S)-6,6-difluoro-7-(3-fluorophenyl)-3-(tetrahydro-2H-pyran-4-yl)-5,6,7,8-tetrahydropyrido[2,3-d]pyrimidine-2,4(1H,3H)-dione, reference compound] | 5.48 | 33 to 66 | Not Detected |  |  | Early after depolarization or EAD |

Source: patent US20250282779A1, “SUBSTITUTED 5,6,7,8-TETRAHYDROPYRIDO[2,3-D]PYRIMIDINE-2,4-DIONES FOR TREATING CARDIAC DISEASES” (MYOKARDIA, INC., priority 2018, published 2025)
